Experimental findings from ChEMBL document CHEMBL1201862, “PubChem BioAssay data set” (2004) are described below.

Each structure is given as a SMILES string.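 Interpolation was linear, between the two tested concentrations surrounding the appropriate level; five concentrations were tested over 48 hours in 96-well plates. At the GI50, growth is halved.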 The source made the active and inactive calls. No stated cut-off is given here; in the data, active = GI50 up to about 1.1 µM and inactive = higher. Some results are limits rather than exact numbers.

Holding throughout (experiment): NCI tumour cell line growth inhibition, 48 h
Experiment [1] relates to U-251.
For experiment [2], the system named is NCI-H460.
Experiment [3] deals with PC-3.
Experiment [4] concerns SK-MEL-2.
In experiment [5] the test system is M14.
Experiment [6] has as its system OVCAR-5.
Experiment [7] has as its system HCT-15.
The subject of experiment [8] is HCT-116.
Experiment [9] concerns HCC 2998.
Experiment [10] relates to SN12C.
For experiment [11], the system named is UO-31.
The subject of experiment [12] is T47D.
Experiment [13] has as its system NCI-H23.
Experiment [14] has as its system CCRF-CEM.
For experiment [15], the system named is SK-MEL-28.
Experiment [16] has as its system HL-60.
The test system of experiment [17] is MDA-MB-231.
For experiment [18], the system named is BT-549.
The subject of experiment [19] is HOP-62.
Experiment [20] concerns RPMI-8226.

`O=C(Nc1cc2c(=O)oc3ccccc3c2oc1=O)c1cccnc1`: the GI50 in [1] is 35.6 µM (inactive); in experiment [2], > 100 µM (inactive); in experiment [3], > 100 µM (inactive); in experiment [4], 83.2 µM (inactive); in [5], 79.6 µM (inactive); in [6], > 100 µM (inactive). For the same compound, the GI50 in experiment [7] is greater than 100 µM; in [8] it was > 100 µM (inactive); in experiment [9], > 100 µM (inactive); in [10] it was > 100 µM (inactive); in experiment [11] it was > 100 µM (inactive); in experiment [12], > 100 µM (inactive). In addition, the GI50 is > 100 µM (inactive) in [13]; > 100 µM (inactive) in experiment [14]; > 100 µM (inactive) in experiment [15]; 48 µM (inactive) in experiment [16]; > 100 µM (inactive) in experiment [17]; > 100 µM (inactive) in experiment [18].
In the case of `CC1=NOC2(C1)/C(=N/O)CCC/C2=N\O` (stereo unspecified), the GI50 in experiment [19], in experiment [1], in [20], in experiment [2], in [3] and in experiment [4] was > 100 µM (inactive) each time. Besides, the GI50 in experiment [5] was > 100 µM (inactive); in experiment [6], > 100 µM (inactive); in experiment [7] it was greater than 100 µM; in [8], > 100 µM (inactive); in [9] it was > 100 µM (inactive); in experiment [10], > 100 µM (inactive). Moreover, the GI50 in experiment [11], in [12], in [13], in experiment [14], in experiment [15] and in experiment [17] was > 100 µM (inactive) in each case. Moreover, in experiment [18], the GI50 is > 100 µM (inactive).
For the compound `OCC1OC(n2cnc3c(Cl)nc(Nc4ccccc4)nc32)CC1O` (stereo unspecified), the GI50 was > 100 µM (inactive) in experiment [19]; > 100 µM (inactive) in [1]; > 100 µM (inactive) in [20]; 49.9 µM (inactive) in experiment [2]; > 100 µM (inactive) in experiment [3]; 45.7 µM (inactive) in [4]. The GI50 is 60.1 µM (inactive) in [5]; > 100 µM (inactive) in [6]; 20.8 µM in experiment [7]; > 100 µM (inactive) in [8]; 17.8 µM (inactive) in experiment [9]; > 100 µM (inactive) in experiment [10]. Besides, the GI50 is 18 µM (inactive) in experiment [11]; > 100 µM (inactive) in experiment [12]; 29.3 µM (inactive) in experiment [13]; 26.1 µM (inactive) in [14]; 31.2 µM (inactive) in [17]; 35.6 µM (inactive) in experiment [18].
On to `COC(=O)Nc1nc(=O)c2ccccc2[nH]1`, for which the GI50 is > 100 µM (inactive) in experiment [19]; 43.8 µM (inactive) in experiment [1]; > 100 µM (inactive) in [2]; > 100 µM (inactive) in experiment [3]; > 100 µM (inactive) in experiment [4]; > 100 µM (inactive) in experiment [5]. Further, the GI50 in experiment [6] is > 100 µM (inactive); in [7] it was greater than 100 µM; in [8], 48.8 µM (inactive); in [9], > 100 µM (inactive); in [10], > 100 µM (inactive); in experiment [11], 32.1 µM (inactive). In addition, the GI50 in experiment [12], in experiment [13], in [14], in experiment [15], in experiment [16] and in experiment [17] was > 100 µM (inactive) each time. Moreover, the GI50 in experiment [18] was > 100 µM (inactive).
With `Cc1ccccc1N/C(=C(/C(Cl)=C(Cl)Cl)[N+](=O)[O-])n1nnc2ccccc21`, the GI50 is 16.9 µM (inactive) in experiment [19]; 16.3 µM (inactive) in experiment [1]; 24.1 µM (inactive) in experiment [20]; 14.2 µM (inactive) in [2]; 22.1 µM (inactive) in experiment [3]; 10.8 µM (inactive) in experiment [4]. Also, the GI50 in [5] is 24.5 µM (inactive); in experiment [6], 16.8 µM (inactive); in [7], 15.4 µM; in experiment [8], 42.4 µM (inactive); in experiment [9], 18 µM (inactive); in experiment [10], 17 µM (inactive). The GI50 is 16.7 µM (inactive) in experiment [11]; 21 µM (inactive) in experiment [12]; 19.1 µM (inactive) in experiment [13]; 29.6 µM (inactive) in experiment [14]; 17 µM (inactive) in experiment [15]; 21.3 µM (inactive) in experiment [17]. The GI50 in experiment [18] is 14.1 µM (inactive).
In the case of `Cc1nc2ccccc2c(=O)n1-c1n[nH]c2ccccc12`, the GI50 in experiment [19], in [1], in experiment [20], in [2], in experiment [3] and in [4] was > 100 µM (inactive) in each case. The GI50 is > 100 µM (inactive) in [5]; > 100 µM (inactive) in experiment [6]; greater than 100 µM in experiment [7]; > 100 µM (inactive) in [8]; > 100 µM (inactive) in [9]; > 100 µM (inactive) in experiment [10]. In addition, the GI50 in experiment [11], in [12], in experiment [13], in [14], in [15] and in [17] was > 100 µM (inactive) throughout. In experiment [18], the GI50 is > 100 µM (inactive).
In the case of `CC(C)[C@H](O)C(=O)N[C@H]1Cc2ccc3c(c2)[C@]24C5=C(N=C(O5)[C@H](C(C)C)NC1=O)c1nc(Cl)c(o1)-c1c(Cl)[nH]c5cccc(c15)-c1cccc2c1N[C@H]4O3`, the GI50 in experiment [19] was 2.33 µM (inactive); in experiment [1], 0.00547 µM (active); in experiment [2] it was 0.0119 µM (active); in [3], 0.00393 µM (active); in [5] it was 0.0311 µM (active); in experiment [6] it was 0.0242 µM (active). Moreover, the GI50 in experiment [7] was 0.0392 µM; in experiment [8], 0.00339 µM (active); in experiment [9] it was 0.00879 µM (active); in [11], 0.0457 µM (active); in [12], 3.9 µM (inactive); in [13], 0.00625 µM (active). Moreover, the GI50 was 0.00103 µM (active) in experiment [14], 0.00718 µM (active) in experiment [15], 0.015 µM (active) in experiment [17] and 0.00863 µM (active) in [18].
Take `Cc1cc(C)c(C#N)c(SC(=S)NC(=O)c2ccc(Cl)cc2)n1`: the GI50 in experiment [19], in experiment [1], in experiment [20], in experiment [2], in [3] and in [4] was > 100 µM (inactive) throughout. The GI50 is > 100 µM (inactive) in experiment [5]; > 100 µM (inactive) in experiment [6]; greater than 100 µM in [7]; > 100 µM (inactive) in [8]; > 100 µM (inactive) in experiment [9]; > 100 µM (inactive) in experiment [11]. The GI50 in experiment [12], in experiment [13], in [14], in experiment [15], in [17] and in [18] was > 100 µM (inactive) each time.
Turning to `Nn1nnc2ccccc21`, the GI50 in experiment [19], in experiment [1], in experiment [20], in experiment [2], in [3] and in [5] was > 100 µM (inactive) each time. The GI50 is > 100 µM (inactive) in experiment [6]; greater than 100 µM in experiment [7]; > 100 µM (inactive) in experiment [8]; > 100 µM (inactive) in [9]; > 100 µM (inactive) in [10]; > 100 µM (inactive) in experiment [11]. The GI50 in [12], in experiment [13], in experiment [14], in experiment [15], in [16] and in experiment [17] was > 100 µM (inactive) throughout. For the same compound, the GI50 in experiment [18] was > 100 µM (inactive).
Regarding `COc1cc2c(cc1OC)C(N)CC2=O` (stereo unspecified), the GI50 in [19], in experiment [1], in [20], in experiment [3], in experiment [4] and in experiment [5] was > 100 µM (inactive) in each case. Further, the GI50 was > 100 µM (inactive) in experiment [6]; greater than 100 µM in [7]; > 100 µM (inactive) in experiment [8]; > 100 µM (inactive) in experiment [9]; > 100 µM (inactive) in experiment [10]; > 100 µM (inactive) in [11]. In addition, the GI50 in [12], in [13], in experiment [14], in experiment [15], in [17] and in [18] was > 100 µM (inactive) in each case.
Regarding `CCCCCCCCCC(=O)OCC1(CO)C/C(=C/CC(C(C)C)C(C)C)C(=O)O1` (stereo unspecified), the GI50 was 30 µM (inactive) in experiment [19]; 26.7 µM (inactive) in [1]; 23.5 µM (inactive) in experiment [2]; 42.4 µM (inactive) in experiment [3]; > 100 µM (inactive) in [4]; 51.2 µM (inactive) in experiment [5]. In addition, the GI50 was 64.9 µM (inactive) in experiment [6]; 84.5 µM in experiment [7]; 33.5 µM (inactive) in experiment [8]; 39.3 µM (inactive) in experiment [9]; 51.9 µM (inactive) in experiment [10]; 28.7 µM (inactive) in experiment [11]. Moreover, the GI50 in experiment [12] was 58.3 µM (inactive); in [13], > 100 µM (inactive); in experiment [14], 14.9 µM (inactive); in [15] it was 71.3 µM (inactive); in experiment [17] it was 51.3 µM (inactive); in experiment [18], > 100 µM (inactive).
